Among the data in patent US9340590B2 (priority 2011, dated 2016) are IC50 values, retold here.

Holding throughout (assay): cell-based
The target of one experiment is hNav1.3 (Homo sapiens, UniProt Q9NY46). The settings on record: IonWorks Quattro, use-dependent block, hNav1.3; read-out: IWQ Use Nav1.3. Background: In patch-clamp work, channel activity is measured electrically.
The target of the next experiment is hNav1.5 (Homo sapiens, UniProt Q14524). As to conditions: IonWorks Quattro, use-dependent block, hNav1.5; read-out: IWQ Use Nav1.5.
Another experiment has as its target hNav1.7 (Homo sapiens, UniProt Q15858). The class given is cell-based. The settings on record: IonWorks Quattro, use-dependent block, hNav1.7; read-out: IWQ Use Nav1.7.

The structures appear in SMILES notation. Positions of bridges follow the written chain, without caps; N, C: chain ends. Non-standard residues stand in square brackets, D forms with d. Residues, ends and D or L forms follow the SMILES beside them. 1Nal = N[C@@H](Cc1cccc2ccccc12)C(=O)O

hNav1.3, sequence (Q9NY46 whole entry, looked up): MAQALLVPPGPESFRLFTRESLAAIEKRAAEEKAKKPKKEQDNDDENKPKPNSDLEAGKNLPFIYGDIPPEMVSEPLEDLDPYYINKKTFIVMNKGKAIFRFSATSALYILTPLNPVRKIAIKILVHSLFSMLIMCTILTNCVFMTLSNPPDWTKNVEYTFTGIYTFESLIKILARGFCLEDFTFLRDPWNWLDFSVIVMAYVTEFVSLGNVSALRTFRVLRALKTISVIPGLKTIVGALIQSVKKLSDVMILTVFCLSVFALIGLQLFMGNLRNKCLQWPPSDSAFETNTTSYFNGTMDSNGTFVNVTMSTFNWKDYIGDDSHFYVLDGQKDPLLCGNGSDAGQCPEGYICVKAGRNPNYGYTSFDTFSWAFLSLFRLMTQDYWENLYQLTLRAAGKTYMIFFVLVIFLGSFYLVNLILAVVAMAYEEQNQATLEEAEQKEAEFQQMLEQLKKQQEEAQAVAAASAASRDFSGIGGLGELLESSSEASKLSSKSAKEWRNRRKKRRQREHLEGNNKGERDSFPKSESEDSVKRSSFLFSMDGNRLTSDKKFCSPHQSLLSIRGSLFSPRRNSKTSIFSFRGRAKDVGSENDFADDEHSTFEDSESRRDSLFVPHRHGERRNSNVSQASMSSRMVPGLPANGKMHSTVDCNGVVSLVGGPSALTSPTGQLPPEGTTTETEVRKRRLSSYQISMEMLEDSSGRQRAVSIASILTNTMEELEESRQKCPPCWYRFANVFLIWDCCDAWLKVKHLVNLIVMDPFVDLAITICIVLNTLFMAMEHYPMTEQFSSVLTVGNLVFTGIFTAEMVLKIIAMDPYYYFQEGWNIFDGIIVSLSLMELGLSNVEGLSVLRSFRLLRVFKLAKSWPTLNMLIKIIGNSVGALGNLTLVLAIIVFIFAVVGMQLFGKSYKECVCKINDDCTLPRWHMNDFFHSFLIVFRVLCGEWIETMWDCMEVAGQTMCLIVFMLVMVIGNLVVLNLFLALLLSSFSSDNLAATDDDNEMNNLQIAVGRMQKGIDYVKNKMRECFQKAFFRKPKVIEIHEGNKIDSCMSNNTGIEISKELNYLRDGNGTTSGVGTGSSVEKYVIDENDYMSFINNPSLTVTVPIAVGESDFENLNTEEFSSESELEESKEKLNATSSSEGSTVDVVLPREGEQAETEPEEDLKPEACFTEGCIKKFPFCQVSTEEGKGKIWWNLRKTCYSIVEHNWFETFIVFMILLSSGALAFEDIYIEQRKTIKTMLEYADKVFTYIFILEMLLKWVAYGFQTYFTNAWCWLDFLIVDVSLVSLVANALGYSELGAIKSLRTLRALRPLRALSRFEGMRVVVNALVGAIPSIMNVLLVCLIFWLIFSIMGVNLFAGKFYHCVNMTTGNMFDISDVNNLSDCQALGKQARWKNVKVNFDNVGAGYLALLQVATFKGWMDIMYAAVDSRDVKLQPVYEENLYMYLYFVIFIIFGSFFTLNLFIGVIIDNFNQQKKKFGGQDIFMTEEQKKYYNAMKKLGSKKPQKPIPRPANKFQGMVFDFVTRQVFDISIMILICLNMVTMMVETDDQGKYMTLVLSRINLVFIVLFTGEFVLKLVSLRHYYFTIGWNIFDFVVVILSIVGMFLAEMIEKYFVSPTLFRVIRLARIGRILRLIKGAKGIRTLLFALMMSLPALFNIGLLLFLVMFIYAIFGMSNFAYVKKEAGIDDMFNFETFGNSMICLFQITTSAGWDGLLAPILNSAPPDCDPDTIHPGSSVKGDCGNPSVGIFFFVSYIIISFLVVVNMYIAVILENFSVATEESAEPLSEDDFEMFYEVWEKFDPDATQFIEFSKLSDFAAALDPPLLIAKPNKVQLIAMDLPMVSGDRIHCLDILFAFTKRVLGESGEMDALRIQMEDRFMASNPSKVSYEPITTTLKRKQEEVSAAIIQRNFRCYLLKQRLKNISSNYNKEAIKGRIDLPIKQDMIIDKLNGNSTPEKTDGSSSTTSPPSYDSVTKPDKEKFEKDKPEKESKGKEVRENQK
hNav1.5, sequence (Q14524 whole entry, looked up): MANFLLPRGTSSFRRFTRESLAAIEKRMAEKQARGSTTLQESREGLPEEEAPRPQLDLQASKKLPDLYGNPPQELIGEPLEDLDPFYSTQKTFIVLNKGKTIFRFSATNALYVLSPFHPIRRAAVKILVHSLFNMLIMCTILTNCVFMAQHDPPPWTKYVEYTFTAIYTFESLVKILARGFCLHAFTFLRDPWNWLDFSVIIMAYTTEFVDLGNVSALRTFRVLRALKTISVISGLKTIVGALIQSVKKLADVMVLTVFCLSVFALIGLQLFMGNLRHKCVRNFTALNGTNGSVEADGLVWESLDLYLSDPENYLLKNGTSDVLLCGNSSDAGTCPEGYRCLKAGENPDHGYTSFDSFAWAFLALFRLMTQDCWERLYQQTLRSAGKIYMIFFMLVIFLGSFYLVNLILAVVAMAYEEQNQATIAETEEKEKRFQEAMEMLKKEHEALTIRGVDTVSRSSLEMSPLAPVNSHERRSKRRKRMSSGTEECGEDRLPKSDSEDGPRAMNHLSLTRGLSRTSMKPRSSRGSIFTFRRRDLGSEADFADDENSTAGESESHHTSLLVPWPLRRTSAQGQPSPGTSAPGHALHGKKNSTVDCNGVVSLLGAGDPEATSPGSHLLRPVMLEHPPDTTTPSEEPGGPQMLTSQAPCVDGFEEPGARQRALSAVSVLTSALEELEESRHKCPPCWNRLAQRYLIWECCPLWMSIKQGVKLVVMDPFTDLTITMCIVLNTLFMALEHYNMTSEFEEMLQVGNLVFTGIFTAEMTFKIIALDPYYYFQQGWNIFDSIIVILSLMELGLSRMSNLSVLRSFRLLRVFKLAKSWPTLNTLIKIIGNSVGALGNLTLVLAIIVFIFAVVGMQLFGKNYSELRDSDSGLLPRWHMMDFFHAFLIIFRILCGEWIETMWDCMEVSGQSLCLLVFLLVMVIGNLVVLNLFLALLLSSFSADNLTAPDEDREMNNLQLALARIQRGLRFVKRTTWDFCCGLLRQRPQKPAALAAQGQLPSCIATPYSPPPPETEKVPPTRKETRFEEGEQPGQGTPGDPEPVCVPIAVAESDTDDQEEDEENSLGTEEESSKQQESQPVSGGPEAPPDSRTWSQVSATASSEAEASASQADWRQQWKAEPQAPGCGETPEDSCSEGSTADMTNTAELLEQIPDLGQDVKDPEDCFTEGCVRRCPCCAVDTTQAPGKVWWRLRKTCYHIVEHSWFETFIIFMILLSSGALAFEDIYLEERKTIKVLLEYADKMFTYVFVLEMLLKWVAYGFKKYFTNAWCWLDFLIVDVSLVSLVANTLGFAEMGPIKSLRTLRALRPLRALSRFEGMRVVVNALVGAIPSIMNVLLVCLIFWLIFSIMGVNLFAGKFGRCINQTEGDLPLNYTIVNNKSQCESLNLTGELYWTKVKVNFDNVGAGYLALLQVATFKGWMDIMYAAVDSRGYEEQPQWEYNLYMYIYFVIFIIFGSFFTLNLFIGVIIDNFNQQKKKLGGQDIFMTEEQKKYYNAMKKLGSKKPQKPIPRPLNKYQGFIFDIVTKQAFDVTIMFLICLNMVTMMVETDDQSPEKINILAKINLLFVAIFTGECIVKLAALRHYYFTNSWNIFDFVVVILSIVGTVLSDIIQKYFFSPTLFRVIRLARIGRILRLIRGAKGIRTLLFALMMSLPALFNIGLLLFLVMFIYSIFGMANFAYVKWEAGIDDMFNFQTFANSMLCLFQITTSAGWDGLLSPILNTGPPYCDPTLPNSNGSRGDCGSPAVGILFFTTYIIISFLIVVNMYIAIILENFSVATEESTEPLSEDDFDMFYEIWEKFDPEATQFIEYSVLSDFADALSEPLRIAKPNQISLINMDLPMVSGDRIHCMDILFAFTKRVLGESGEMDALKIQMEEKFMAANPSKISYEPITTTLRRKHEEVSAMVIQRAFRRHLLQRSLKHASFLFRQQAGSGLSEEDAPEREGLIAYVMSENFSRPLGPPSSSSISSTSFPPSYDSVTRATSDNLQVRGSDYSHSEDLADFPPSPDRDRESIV

Take `CC[C@H](C)[C@@H]1NC(=O)[C@@H]2CSSC[C@@H]3NC(=O)[C@H](C(C)C)NC(=O)[C@H](CC(C)C)NC(=O)[C@H](CC(N)=O)NC(=O)[C@@H]4CCCN4C(=O)[C@H](CCCNC(=N)N)NC(=O)[C@H](CSSC[C@H](NC(=O)[C@@H](N)CC(=O)O)C(=O)N[C@@H](CC(C)C)C(=O)NCC(=O)N[C@@H](Cc4ccccc4)C(=O)N[C@@H](CCSC)C(=O)N[C@@H](CCCNC(=N)N)C(=O)N[C@@H](CCCCN)C(=O)N2)NC(=O)[C@H](CSSC[C@@H](C(=O)N[C@@H](CCCCN)C(=O)N[C@@H](Cc2ccc(O)cc2)C(=O)N[C@@H](Cc2cccc4ccccc24)C(=O)N[C@@H](Cc2ccccc2)C(N)=O)NC(=O)[C@H](Cc2c[nH]c4ccccc24)NC(=O)[C@H](CCCNC(=N)N)NC(=O)[C@H](Cc2c[nH]cn2)NC(=O)[C@H]([C@@H](C)O)NC(=O)[C@H](CCCNC(=N)N)NC(=O)[C@H](CO)NC3=O)NC(=O)[C@H](CCCCN)NC(=O)[C@H](CC(=O)O)NC(=O)[C@H](CC(N)=O)NC(=O)[C@H](CC(=O)O)NC(=O)[C@@H]2CCCN2C1=O` [compound 442] (H-DCLGFMRKCIPDNDKCCRPNLVCSRTHRWCKY[1Nal]F-NH2; disulfide 2-17, 9-23, 16-30): the IC50 at hNav1.3 was 40 nM; at hNav1.5 it was greater than 5000 nM; at hNav1.7, 30 nM.

`CC[C@H](C)[C@@H]1NC(=O)[C@@H]2CSSC[C@@H]3NC(=O)[C@H](C(C)C)NC(=O)[C@H](CC(C)C)NC(=O)[C@H](CC(N)=O)NC(=O)[C@@H]4CCCN4C(=O)[C@H](CCCNC(=N)N)NC(=O)[C@H](CSSC[C@H](NC(=O)[C@@H](N)CC(=O)O)C(=O)N[C@@H](CC(C)C)C(=O)NCC(=O)N[C@@H](Cc4ccccc4)C(=O)N[C@@H](CCSC)C(=O)N[C@@H](CCCNC(=N)N)C(=O)N[C@@H](CCCCN)C(=O)N2)NC(=O)[C@H](CSSC[C@@H](C(=O)N[C@@H](CCCCN)C(=O)N[C@@H](Cc2c[nH]c4ccccc24)C(=O)N[C@H](C(=O)N[C@@H](Cc2ccccc2)C(N)=O)C(C)C)NC(=O)[C@H](Cc2c[nH]c4ccccc24)NC(=O)[C@H](CCCNC(=N)N)NC(=O)[C@H](Cc2c[nH]cn2)NC(=O)[C@H]([C@@H](C)O)NC(=O)[C@H](CCCNC(=N)N)NC(=O)[C@H](CO)NC3=O)NC(=O)[C@H](CCCCN)NC(=O)[C@H](CC(=O)O)NC(=O)[C@H](CC(N)=O)NC(=O)[C@H](CC(=O)O)NC(=O)[C@@H]2CCCN2C1=O` [compound 443] (H-DCLGFMRKCIPDNDKCCRPNLVCSRTHRWCKWVF-NH2; disulfide 2-17, 9-23, 16-30): the IC50 came out at 70 nM on hNav1.3, 4920 nM at hNav1.5 and 70 nM on hNav1.7.

On to `CC[C@H](C)[C@@H]1NC(=O)[C@@H]2CSSC[C@@H]3NC(=O)[C@H](C(C)C)NC(=O)[C@H](CC(C)C)NC(=O)[C@H](CC(N)=O)NC(=O)[C@@H]4CCCN4C(=O)[C@H](CCCNC(=N)N)NC(=O)[C@H](CSSC[C@H](NC(=O)[C@@H](N)CC(=O)O)C(=O)N[C@@H](CC(C)C)C(=O)NCC(=O)N[C@@H](Cc4ccccc4)C(=O)N[C@@H](CCSC)C(=O)N[C@@H](CCCNC(=N)N)C(=O)N[C@@H](CCCCN)C(=O)N2)NC(=O)[C@H](CSSC[C@@H](C(=O)N[C@@H](CCCCN)C(=O)N[C@@H](Cc2ccc(O)cc2)C(=O)N[C@@H](Cc2c[nH]c4ccccc24)C(=O)N[C@@H](Cc2ccccc2)C(N)=O)NC(=O)[C@H](Cc2c[nH]c4ccccc24)NC(=O)[C@H](CCCNC(=N)N)NC(=O)[C@H](Cc2c[nH]cn2)NC(=O)[C@H]([C@@H](C)O)NC(=O)[C@H](CCCNC(=N)N)NC(=O)[C@H](CO)NC3=O)NC(=O)[C@H](CCCCN)NC(=O)[C@H](CC(=O)O)NC(=O)[C@H](CC(N)=O)NC(=O)[C@H](CC(=O)O)NC(=O)[C@@H]2CCCN2C1=O` [compound 444] (H-DCLGFMRKCIPDNDKCCRPNLVCSRTHRWCKYWF-NH2; disulfide 2-17, 9-23, 16-30), for which the IC50 was 40 nM at hNav1.3, greater than 5000 nM on hNav1.5 and 30 nM at hNav1.7.

`CC[C@H](C)[C@@H]1NC(=O)[C@@H]2CSSC[C@@H]3NC(=O)[C@H](C(C)C)NC(=O)[C@H](CC(C)C)NC(=O)[C@H](CC(N)=O)NC(=O)[C@@H]4CCCN4C(=O)[C@H](CCCNC(=N)N)NC(=O)[C@H](CSSC[C@H](NC(=O)[C@@H](N)CC(=O)O)C(=O)N[C@@H](CC(C)C)C(=O)NCC(=O)N[C@@H](Cc4ccccc4)C(=O)N[C@@H](CCSC)C(=O)N[C@@H](CCCNC(=N)N)C(=O)N[C@@H](CCCCN)C(=O)N2)NC(=O)[C@H](CSSC[C@@H](C(=O)N[C@@H](CCCCN)C(=O)N[C@@H](Cc2ccc(O)cc2)C(=O)N[C@H](C(=O)N[C@@H](Cc2ccccc2)C(N)=O)C(C)C)NC(=O)[C@H](Cc2c[nH]c4ccccc24)NC(=O)[C@H](CCCNC(=N)N)NC(=O)[C@H](Cc2c[nH]cn2)NC(=O)[C@H](CC(C)C)NC(=O)[C@H](CCCNC(=N)N)NC(=O)[C@H](CO)NC3=O)NC(=O)[C@H](CCCCN)NC(=O)[C@H](CC(=O)O)NC(=O)[C@H](CC(N)=O)NC(=O)[C@H](CC(=O)O)NC(=O)[C@@H]2CCCN2C1=O` [compound 445] (H-DCLGFMRKCIPDNDKCCRPNLVCSRLHRWCKYVF-NH2; disulfide 2-17, 9-23, 16-30): the IC50 at hNav1.3 is 60 nM; on hNav1.5 it was greater than 5000 nM; at hNav1.7 it was 30 nM.

`CC[C@H](C)[C@@H]1NC(=O)[C@@H]2CSSC[C@@H]3NC(=O)[C@H](C(C)C)NC(=O)[C@H](CC(C)C)NC(=O)[C@H](CC(N)=O)NC(=O)[C@@H]4CCCN4C(=O)[C@H](CCCNC(=N)N)NC(=O)[C@H](CSSC[C@H](NC(=O)[C@@H](N)CC(=O)O)C(=O)N[C@@H](CC(C)C)C(=O)NCC(=O)N[C@@H](Cc4ccccc4)C(=O)N[C@@H](CCSC)C(=O)N[C@@H](CCCNC(=N)N)C(=O)N[C@@H](CCCCN)C(=O)N2)NC(=O)[C@H](CSSC[C@@H](C(=O)N[C@@H](CCCCN)C(=O)N[C@@H](Cc2c[nH]c4ccccc24)C(=O)N[C@H](C(=O)N[C@@H](Cc2ccccc2)C(N)=O)C(C)C)NC(=O)[C@H](Cc2c[nH]c4ccccc24)NC(=O)[C@H](CCCCN)NC(=O)[C@H](Cc2c[nH]cn2)NC(=O)[C@H](CC(C)C)NC(=O)[C@H](CCCNC(=N)N)NC(=O)[C@H](CO)NC3=O)NC(=O)[C@H](CCCCN)NC(=O)[C@H](CC(=O)O)NC(=O)[C@H](CC(N)=O)NC(=O)[C@H](CC(=O)O)NC(=O)[C@@H]2CCCN2C1=O` [compound 446] (H-DCLGFMRKCIPDNDKCCRPNLVCSRLHKWCKWVF-NH2; disulfide 2-17, 9-23, 16-30): the IC50 at hNav1.3 was 60 nM; at hNav1.5, greater than 5000 nM; at hNav1.7, 40 nM.

Regarding `CC[C@H](C)[C@@H]1NC(=O)[C@@H]2CSSC[C@@H]3NC(=O)[C@H](C(C)C)NC(=O)[C@H](CC(C)C)NC(=O)[C@H](CC(N)=O)NC(=O)[C@@H]4CCCN4C(=O)[C@H](CCCNC(=N)N)NC(=O)[C@H](CSSC[C@H](NC(=O)[C@@H](N)CC(=O)O)C(=O)N[C@@H](CC(C)C)C(=O)NCC(=O)N[C@@H](Cc4ccccc4)C(=O)N[C@@H](CCSC)C(=O)N[C@@H](CCCNC(=N)N)C(=O)N[C@@H](CCCCN)C(=O)N2)NC(=O)[C@H](CSSC[C@@H](C(=O)N[C@@H](CCCCN)C(=O)N[C@@H](Cc2ccc(O)cc2)C(=O)N[C@@H](Cc2c[nH]c4ccccc24)C(=O)N[C@@H](Cc2ccccc2)C(N)=O)NC(=O)[C@H](Cc2c[nH]c4ccccc24)NC(=O)[C@H](CCCCN)NC(=O)[C@H](Cc2c[nH]cn2)NC(=O)[C@H](CC(C)C)NC(=O)[C@H](CCCNC(=N)N)NC(=O)[C@H](CO)NC3=O)NC(=O)[C@H](CCCCN)NC(=O)[C@H](CC(=O)O)NC(=O)[C@H](CC(N)=O)NC(=O)[C@H](CC(=O)O)NC(=O)[C@@H]2CCCN2C1=O` [compound 447] (H-DCLGFMRKCIPDNDKCCRPNLVCSRLHKWCKYWF-NH2; disulfide 2-17, 9-23, 16-30), the IC50 at hNav1.3 is 20 nM; at hNav1.5 it was greater than 5000 nM; at hNav1.7 it was 30 nM.

Consider `CC[C@H](C)[C@@H]1NC(=O)[C@@H]2CSSC[C@@H]3NC(=O)[C@H](C(C)C)NC(=O)[C@H](CC(C)C)NC(=O)[C@H](CC(N)=O)NC(=O)[C@@H]4CCCN4C(=O)[C@H](CCCNC(=N)N)NC(=O)[C@H](CSSC[C@H](NC(=O)[C@@H](N)CC(=O)O)C(=O)N[C@@H](CC(C)C)C(=O)NCC(=O)N[C@@H](Cc4ccccc4)C(=O)N[C@@H](Cc4c[nH]c5ccccc45)C(=O)N[C@@H](CCCNC(=N)N)C(=O)N[C@@H](CCCCN)C(=O)N2)NC(=O)[C@H](CSSC[C@@H](C(=O)N[C@@H](CCCCN)C(=O)N[C@@H](Cc2ccc(O)cc2)C(=O)N[C@H](C(=O)N[C@@H](Cc2ccccc2)C(N)=O)C(C)C)NC(=O)[C@H](Cc2c[nH]c4ccccc24)NC(=O)[C@H](CCCNC(=N)N)NC(=O)[C@H](Cc2c[nH]cn2)NC(=O)[C@H]([C@@H](C)O)NC(=O)[C@H](CCCNC(=N)N)NC(=O)[C@H](CO)NC3=O)NC(=O)[C@H](CCCCN)NC(=O)[C@H](CC(=O)O)NC(=O)[C@H](CC(N)=O)NC(=O)[C@H](CC(=O)O)NC(=O)[C@@H]2CCCN2C1=O` [compound 448] (H-DCLGFWRKCIPDNDKCCRPNLVCSRTHRWCKYVF-NH2; disulfide 2-17, 9-23, 16-30), for which the IC50 at hNav1.3 is 10 nM; at hNav1.5, 2910 nM; on hNav1.7, 10 nM.
